This is an account of results in patent US7427391B2, “Formulations for use in medical and diagnostic procedures” (priority 2001, dated 2008).

Structures are written as SMILES.

Holding throughout (assay type): in vivo, human
The test system of data set [1] is stomach and small bowel. Kind of data set: CT-PET measurement of stomach, jejunum and ileum diameters in oncologic patients (Example 5). The note with it: 20 oncologic patients per agent. Here is the method:
CT-PET examinations of 60 oncologic patients were performed on a combined CT-PET tomograph. Three different oral contrast agents were randomly assigned to 20 patients each: barium, water, and a solution of 2.5% mannitol and 0.2% locust bean gum (LBG). To compare the bowel distension abilities of the three agents, representative diameters each of the stomach, the jejunum and the ileum were measured by two radiologists. PET images were evaluated qualitatively for areas of increased bowel FDG uptake based on a four-point scale as well as quantitatively by determination of standard uptake values (SUV). To assess the effect of the different contrast agents onto the tracer activity concentration phantom measurements were performed.
Table 3 Intestinal distension of the stomach, the jejunum, and the ileum induced by the contrast agents under investigation as well as SUV of the small intestine in the presence of the different contrast materials. Statistical significance was determined by unpaired Student's test based on 200 measurements each for the stomach, the jejunum, the ileum, and the SUV. Thus, a total of 800 measurements were performed for every contrast agent under investigation.

Data set [2] concerns small bowel. The data set can be described thus: Blinded qualitative rating of bowel distension on MR images by five radiologists (Example 4). The following applies: six volunteers; consensus of five blinded radiologists. From the text: For a qualitative assessment, MR images of all 5 examinations for each volunteer were presented as hardcopies in a randomized and blinded fashion to five radiologists. They were asked to rate the images regarding bowel distention in an ascending order for each volunteer. The qualitative assessment was done by consensus.

Data set [3] concerns small bowel. Kind of data set: MR imaging of small bowel after oral contrast solutions (Examples 1-3). The following applies: oral application, FIGS. 1-9.
Protocol: Ten healthy volunteers with no history of gastrointestinal disorder underwent MR imaging following an eight hour fast. The examination was repeated on four different days using different osmotic substances in a randomized order: water, water spiked with mannitol (2.5%), Metamucil (0.7%) or locust bean gum (0.2%). Concentrations of the additives were chosen to avoid side-effects such as diarrhea.
Forty-five minutes prior to the examination, 50 mg of Erythromycin was applied intravenously to increase gastric emptying and the volunteers started ingesting the respective contrast substance. Coronal 2D measurements were performed in the prone patient position with a TRUFISP sequence (TR/TE/flip 3.2/1.6/70°) using 1.5 T scanner (Sonata, Siemens). The acquisition time amounted to 16 sec. Small bowel filling was quantified in two different ways: (1) determination of small bowel fluid by automatically measuring all pixels meeting the signal intensity of water, and (2) assessment of small bowel distension by manual measurement of 15 small bowel diameters and calculating an average value.
In data set [4] the test system is small bowel. The data set can be described thus: MR (TrueFISP) measurement of small bowel loop diameters after 1500 ml oral contrast solution (Example 4). The note with it: for Mean small bowel diameter / Mean small bowel diameter, AV (average of all six volunteer examinations): 1500 ml orally over 45 minutes; for Mean small bowel diameter: MR TrueFISP; for Mean small bowel diameter, AV (average of all six volunteer examinations): average of six volunteers; for Small bowel distension, comparison in words: six volunteers, paired t-test, p<0.01. The procedure: Six healthy volunteers (three female and three male; age range 21-28 years) without known contraindications to MR imaging were included in this study, which was conducted in accordance with all guidelines set forth by the approving institutional review board. Presence of gastrointestinal disease, previous abdominal surgery and symptoms of gastrointestinal disorders such as post-prandiol belching, nausea or early satiety were excluded. Each volunteer was examined on five different occasions. […] The LBG and Metamucil concentrations were chosen as high as possible within the confines of an unproblematic ingestion regarding viscosity and flavor, while choice of the mannitol concentration was based on previous studies. To assure homogenization of bowel activity, all exams were performed following 8 hour fasts. Prior to each exam, 1500 ml of the respective contrast solution were orally ingested over 45 minutes at a steady, evenly distributed rate. To ensure a consistent ingestion, volunteers were asked to drink 150 ml every four to five minutes. To enhance gastric emptying, 100 mg erythromycin (Abbott Pharmaceutics, Wiesbaden, Germany) were administered intravenously directly after the ingestion of the first 150 ml of the contrast solution. […] For signal reception a large ‘flex surface coils’ was used. Prior to the data acquisition neither spasmolytic agents nor paramagnetic contrast compounds were intravenously applied. […] Other sequence parameters included a field of view 35 cm, a slice thickness of 7 mm (25 slices) and an acquisition time of 24 seconds. Matrix size was 144×256, inter section gap amounted to 1 mm and the number of excitation was one. All 30 MR examinations were of diagnostic image quality. 1500 ml of each solution was ingested within the target time of 45 minutes. Images were quantitatively analyzed independently by two radiologists, who were blinded to the type of oral contrast employed. […] For the measurements bowel loops with maximal diameter were chosen. […] Subsequent analysis was based on mean small bowel diameters and their standard deviations. The effects of the analyzed oral contrast agents concerning small bowel distension were compared by a paired t-test. For the adaptation to multiple samples, a Bonferoni-correction was used.

Data set [5] in a line: Incidence of diarrhea in patients given contrast agent. The following applies: administered alone as a contrast agent. Here is the method: Further, it has been discovered that the formulations disclosed herein have the unexpected benefit of reducing incidents of diarrhea among patients. For example, when mannitol alone is administered as a contrast agent, approximately 99% of patients experience diarrhea, sometimes in severe form. As a result, the patient's health and/or hydration may be affected, and the exam may be compromised. […] It is believed that this is due to the thickening properties of the stabilizing agent. Accordingly, due to the patient not having to use the bathroom during the procedure, for example, the medical or diagnostic procedure can be performed with less patient discomfort and with less interference. Additionally, patient compliance with the medical or diagnostic procedure is increased due to decreased complications with the procedure.

Data set [6] is described as follows: Side-effect questionnaire (diarrhea, nausea) 24 hours after MR examination (Example 4). The source says:
Twenty-four hours after each MR examination, volunteers were asked by a standardized questionnaire based on a three-point scale (0=no side-effects, 1=mild side-effects, 2=severe side-effects) if either diarrhea or nausea have occurred in association with the contrast ingestion.

As to `O` [Water, water], the “Intestinal distension of the ileum, Mean” value in data set [1] was determined as 1.4. In addition, in data set [1], the “Intestinal distension of the jejunum, Mean” value is 1.6. The “Intestinal distension of the stomach, Mean” value in data set [1] is 6.1. Further, the “Qualitative assessment of small bowel distension (rating)” value in data set [2] was “rated poorest”. Besides, the “Diagnostic performance / lumen distention, in words” value in data set [3] is given as “does not achieve acceptable or diagnostic results”. Besides, the “Mean small bowel diameter” value was found to be 13.6 mm in data set [4] (Volunteer #1); 15.0 mm in data set [4] (Volunteer #2); 12.4 mm in data set [4] (Volunteer #3); 14.6 mm in data set [4] (Volunteer #4); 12.6 mm in data set [4] (Volunteer #5); 11.8 mm in data set [4] (Volunteer #6). Also, in data set [4], the “Mean small bowel diameter, AV (average of all six volunteer examinations)” value is listed as 13.3 mm. Also, the “Small bowel distension, comparison in words” value in data set [4] was “significantly less small bowel distension”.
On to `OC[C@@H](O)[C@@H](O)[C@H](O)[C@H](O)CO` [Mannitol, mannitol], for which, in data set [2], the “Qualitative assessment of small bowel distension (rating)” value is “in four volunteers mannitol was rated better”. Further, the “Mean small bowel diameter” value is 23.7 mm in data set [4] (Volunteer #1); 22.9 mm in data set [4] (Volunteer #2); 19.2 mm in data set [4] (Volunteer #3); 19.3 mm in data set [4] (Volunteer #4); 22.9 mm in data set [4] (Volunteer #5); 19.6 mm in data set [4] (Volunteer #6). Moreover, the “Mean small bowel diameter, AV (average of all six volunteer examinations)” value in data set [4] is on record as 21.3 mm. The “Small bowel distension, comparison in words” value in data set [4] is “superior to Metamucil”. The Patients experiencing diarrhea result in data set [5] is listed as “approximately 99%”. Moreover, the “Diarrhea, in words” value in data set [6] (of the three evaluated substances) was “consistently resulted in diarrhea”. In addition, the “Diarrhea as side effect, volunteers reporting” value in data set [6] (six volunteers, questionnaire 24 hours after MR examination) is reported as 2 of 6.
